For data set [1] the following is noted: cited from earlier work.
In data set [2] the test system is P-gp. Kind of data set: Rho123 accumulation in MCF7 breast cancer cells. The data set is classed as cell-based, human. Particulars: 0.025 μM Lexiscan® concomitant with Rho123, vs vehicle control.
The subject of another data set is MMP9. Kind of data set: MMP9 expression in HBMVEC (western blot, IFA). The data set is classed as cell-based, human. Particulars: western blot and IFA. The text has this: FIG. 8A is a schematic diagram of the experimental procedure for analysis of Lexiscan®'s effect on P-gp solubility and excretion in primary brain endothelial cells (“HBMVEC”). FIGS. 8B-8C are western blots and graphs summarizing the experimental result of each western blot. FIGS. 8B-8C show the analysis of P-gp expression of HBMVEC upon activation with Lexiscan® at different time points after lysis with RIPA buffer (FIG. 8B) or CSK buffer to measure P-gp levels in the cytoskeletal fraction (FIG. 8C). Band intensity was normalized to GAPDH and graphed. […] Band intensity was normalized using GAPDH and plotted. FIG. 8E is a western blot of secreted P-gp in HBMVEC upon activation with Lexiscan® in absence or presence of an MMP9 inhibitor: both short and long exposures of western blot from MMP9 inhibitor-treated samples are shown. Band intensity was plotted as a graph. […] FIG. 8H is a graph summarizing the intensity of fluorescence of MMP9 from FIG. 8G. Fluorescent intensity of MMP9 was quantified and plotted as graph (n=20). **P<0.01 (2-tailed Student's t test, 1 representative result of 3 different experiments).
(§1) HCMEC-D3 and HBMVEC cells were plated in 12-well plates and were grown until they reached 100% confluency. […] The intensity of band was analyzed with densitometric analysis and plotted as a graph for analysis of time-course effect of AR signaling on P-gp expression.

The test system of data set [3] is P-gp. Briefly: P-gp solubility and secretion in HBMVEC (RIPA lysate, CSK cytoskeletal fraction, media). In kind it is cell-based, human.
From the text: FIG. 8A is a schematic diagram of the experimental procedure for analysis of Lexiscan®'s effect on P-gp solubility and excretion in primary brain endothelial cells (“HBMVEC”). FIGS. 8B-8C are western blots and graphs summarizing the experimental result of each western blot. FIGS. 8B-8C show the analysis of P-gp expression of HBMVEC upon activation with Lexiscan® at different time points after lysis with RIPA buffer (FIG. 8B) or CSK buffer to measure P-gp levels in the cytoskeletal fraction (FIG. 8C). Band intensity was normalized to GAPDH and graphed. […] Band intensity was normalized using GAPDH and plotted. FIG. 8E is a western blot of secreted P-gp in HBMVEC upon activation with Lexiscan® in absence or presence of an MMP9 inhibitor: both short and long exposures of western blot from MMP9 inhibitor-treated samples are shown. Band intensity was plotted as a graph. FIG. 8F is a western blot showing the results of an Immunoprecipitation assay of MMP9 with lysate from HBMVEC treated with vehicle (control) or 1 μM of Lexiscan® for 5 minutes. P-gp was pulled down using anti-P-gp antibody and immunoblotted with an anti-MMP9 antibody. FIG. 8G is an immunofluorescence microscopy image of MMP9 on HBMVEC treated with control (top panel) or 1 μM of Lexiscan® (middle panel) for 5 minutes. Cells were stained with P-gp (green) and MMP9 (red). Nucleus was counterstained with DAPI (blue). […] Cell-surface colocalization of P-gp and MMP9 is indicated by arrows. The scale bars indicates 25 μm (upper and middle panels); 5 μm (bottom panels). FIG. 8H is a graph summarizing the intensity of fluorescence of MMP9 from FIG. 8G. Fluorescent intensity of MMP9 was quantified and plotted as graph (n=20). **P<0.01 (2-tailed Student's t test, 1 representative result of 3 different experiments).
as §1

Take `CCNC(=O)[C@H]1O[C@@H](n2cnc3c(N)ncnc32)[C@H](O)[C@@H]1O` [NECA, (2S,3S,4R,5R)-5-(6-aminopurin-9-yl)-N-ethyl-3,4-dihydroxyoxolane-2-carboxamide]: the half-life in data set [1] is 5 h.
For the molecule `CNC(=O)c1cnn(-c2nc(N)c3ncn([C@@H]4O[C@H](CO)[C@@H](O)[C@H]4O)c3n2)c1` [Lexiscan®, 1-[6-amino-9-[(2R,3R,4S,5R)-3,4-dihydroxy-5-(hydroxymethyl)oxolan-2-yl]purin-2-yl]-N-methylpyrazole-4-carboxamide], the Rho123 accumulation entry with P-gp [2] was “significant Rho123 accumulation occurred by 15 minutes and 60 minutes”. The MMP9 expression entry with MMP9 is on record as “Increased expression of MMP9 was observed beginning at 5 minutes”. Moreover, in the data set with P-gp [3], the “Secreted P-gp released into the media” value is “An increase in secreted P-gp that was released into the media”. In the data set on P-gp [3] (up to 60 minutes), the “P-gp level in cytoskeletal fraction (CSK buffer)” value was “P-gp levels increased at from 5 to 15 minutes, returned to baseline by 30 minutes”; the “P-gp level in whole lysate (RIPA buffer)” value was “P-gp levels declined compared with vehicle control beginning at 5 minutes and were maintained for up to 60 minutes”.

These data come from US10953015B2, “Use of adenosine receptor signaling to regulate P-gp function” (CORNELL UNIVERSITY, priority 2016, dated 2021).
